According to article PMC7589190, “Targeted Amino Acid Substitutions in a Trichoderma Peptaibol Confer Activity against Fungal Plant Pathogens and Protect Host Tissues from Botrytis cinerea Infection” (International Journal of Molecular Sciences, 2020):
“Also recorded” adds a separate entry of the source. Marks after values point to notes of the source that are not given here. Square brackets hold non-standard residues; d marks the D form. Peptide text beside a SMILES is read from it. * marks the point of attachment. Leu(ol) = CC(C)C[C@H](N)CO; Octanoyl = CCCCCCCC(=O)*; Api = NC1(C(=O)O)CCNCC1; Aib = CC(C)(N)C(=O)O

What was measured:
[1] = system: pronase E (a mixture of different proteases); conditions: after 27 h, HPLC
B. cinerea [2] = test: Resazurin vital dye growth assay in microtiter wells; type: cell-based, Botrytis cinerea; design: key to Antifungal Activity: –, no activity; conditions: for Growth Delay / fungal growth / activity against B. cinerea (in words): peptide 15 µM; for Growth Delay: PDB pH 6.9, 5 × 10^5 spores mL^−1, resazurin, 25 °C dark, vs untreated control, repeated three times; for fungal growth / activity against B. cinerea (in words): resazurin dye; for Antifungal Activity: summary of performance of Lys-containing analogs against B. cinerea
trypsin = conditions: HPLC
B. cinerea [3] = test: Protection of grape berries from B. cinerea infection; type: in vivo, Botrytis cinerea; conditions: 50 µM, vs control
F. graminearum = conditions: for MIC: 96 h, pH 6.9
B. sorokiniana = type: cell-based, Bipolaris sorokiniana; conditions: for growth inhibition at maximum concentration tested: 15 µM, 96 h, absorbance at 450 nm
B. cinerea [4] = test: Protection of grapevine leaves from B. cinerea infection; type: in vivo, Botrytis cinerea; conditions: grapevine leaves cv. Glera, 50 µM, 7 dpi, vs water control, three experiments
B. cinerea [5] = test: Protection of common bean leaves from B. cinerea infection; conditions: for reduction of infected (symptomatic) leaf area: common bean leaves (Phaseolus vulgaris, Borlotto var. Teggia), peptide sprayed at 50 µM
Protocol: Leaves of common bean (Phaseolus vulgaris, Borlotto var. Teggia) were detached from 12 days-old plants grown in organic soil into a climatic chamber with a 14 h photoperiod and 22/20 °C day/night temperature.
Treatments were performed by spraying the peptides at different concentrations on leaves and berries. Water spraying was performed as a negative control.
Leaves were arranged on moist towels in plastic trays and inoculated with a suspension of 2.5 × 10^6 mL^−1 conidia of B. cinerea in potato dextrose broth (PDB). Ten microliters of the conidia suspension were dropped on two or three points apart on the leaf surface of common bean and grapevine leaves, respectively.
Inoculated leaves and berries were incubated in the dark at 25 °C in plastic bags to maintain humidity.
Seven days post-inoculation (dpi), the size of the symptomatic leaf area was measured from pictures taken with a Panasonic Lumix DMC-FZ2000 by using the graphic software “Fiji ImageJ” (GNU General Public License).
The experiment was repeated three times with leaves and four times with berries. Each treatment was performed with seven leaves of common bean and three leaves of the grapevine.
Data obtained in the infection experiments performed on common bean leaves were statistically analyzed by applying the one-way Anova Bonferroni–Holm test. The statistical analysis was performed within the groups of peptides tested at the same time compared to their respective control.

B. cinerea [6] = type: cell-based, Botrytis cinerea; conditions: 15 µM, 96 h, absorbance at 450 nm
P. expansum = conditions: for growth inhibition at maximum concentration tested: 15 µM, 96 h, absorbance at 450 nm
B. cinerea conidia = test: Cell viability assay of conidia (Evan's blue staining, plating on PDA); type: cell-based, Botrytis cinerea; conditions: 15 µM
[7] = Water solubility of the peptides; type: physicochemical; conditions: native peptide; solubilized in ethanol before dilution in water
Protocol: Peptides were produced by manual and semiautomatic solid-phase peptide synthesis (SPPS). To reduce the impact on the environment of the synthesis, a limited excess of reagents was employed in the coupling steps (1.5–2.5 equivalents of coupling reagents instead of the standard 4 equivalents-1 equivalent corresponds to the loading of the resin). Moreover, all steps were performed in the ecofriendly solvent mixture of dimethylsulfoxide/ethyl acetate 1:9 instead of the hazardous solvent N,N-dimethylformamide (DMF). We exploited ethyl cyano(hydroxyimino) acetate (Oxyma pure) and diisopropylcarbodiimide (DIC), classified by the ACS Green Chemistry Institute® Pharmaceutical Roundtable as two of the greenest coupling reagents, instead of the commonly employed O-benzotriazol-1-yl-1,1,3,3 tetramethyluronium hexafluorophosphate (HBTU)/1-hydroxy-1,2,3-benzotriazole (HOBt) mixture or HATU [2-(1H-7-aza-1,2,3-benzotriazol-1-yl)-1,1,3,3-tetramethyl uronium hexafluorophosphate]. The strategy reduced the environmental impact and synthetic costs by more than 70% compared to our previous methods based on standard procedure. By adopting a manual/semiautomatic synthetic approach, the amount of solvents and reagents were reduced relative to those used in automated synthesis. The steric hindrance of Aib makes it poorly reactive, to the point that standard procedures employ repeated couplings. […]

[8] = monitored every 12 h for seven days

Compound | Growth Delay (B. cinerea [2]; [8]) [h] | fungal growth / activity against B. cinerea (in words) (B. cinerea [2]; [8]) | Antifungal Activity (B. cinerea [2]) | Growth Delay (B. cinerea [2]; monitored for seven days) [h] | reduction of infected (symptomatic) leaf area (B. cinerea [5]; 7 dpi, vs water control) | also measured
CCCCCCCC(=O)NC(C)(C)C(=O)N[C@@H](CCCCN)C(=O)N[C@@H](CC(C)C)C(=O)NC(C)(C)C(=O)N[C@@H](CCCCN)C(=O)NCC(=O)N[C@@H](CC(C)C)C(=O)NC(C)(C)C(=O)NCC(=O)N[C@H](C(=O)N[C@H](CO)CC(C)C)[C@@H](C)CC [Peptide 1] (Octanoyl-[Aib]KL[Aib]KGL[Aib]GI[Leu(ol)]) | 12 to 24 | delayed growth | + ^a |  |  | stability against pronase [1]: stable; time to digestion by trypsin (trypsin): less than 15 min
CCCCCCCC(=O)NC(C)(C)C(=O)N[C@@H](CCCCN)C(=O)N[C@@H](CC(C)C)C(=O)NC(C)(C)C(=O)NCC(=O)NCC(=O)N[C@@H](CC(C)C)C(=O)NC(C)(C)C(=O)NCC(=O)N[C@H](C(=O)N[C@H](CO)CC(C)C)[C@@H](C)CC [Peptide 2] (Octanoyl-[Aib]KL[Aib]GGL[Aib]GI[Leu(ol)]) | 36 to 48 | delayed growth | ++ |  |  | 
CCCCCCCC(=O)NC(C)(C)C(=O)NCC(=O)N[C@@H](CC(C)C)C(=O)NC(C)(C)C(=O)N[C@@H](CCCCN)C(=O)NCC(=O)N[C@@H](CC(C)C)C(=O)NC(C)(C)C(=O)NCC(=O)N[C@H](C(=O)N[C@H](CO)CC(C)C)[C@@H](C)CC [Peptide 3] | 0 | fungal growth was observed after 12 h | – |  |  | 
CCCCCCCC(=O)NC(C)(C)C(=O)NCC(=O)N[C@@H](CC(C)C)C(=O)NC(C)(C)C(=O)N[C@@H](CCCCN)C(=O)N[C@@H](CCCCN)C(=O)N[C@@H](CC(C)C)C(=O)NC(C)(C)C(=O)NCC(=O)N[C@H](C(=O)N[C@H](CO)CC(C)C)[C@@H](C)CC [Peptide 4] |  | No growth occurred | ++++ | >170 | > 95% | increase in the number of asymptomatic berries (B. cinerea [3]): threefold increase; growth inhibition at maximum concentration tested (F. graminearum): completely inhibited the growth; MIC (F. graminearum): 5 to 15 µM; growth inhibition at maximum concentration tested (B. sorokiniana): strong growth inhibition effect; reduction of infected leaf area (B. cinerea [4]): about 70%; disease symptoms (in words) (B. cinerea [5]; common bean leaves, 15 µM): significant decrease in disease symptoms; disease symptoms (in words) (B. cinerea [5]; common bean leaves, 50 µM): almost complete annulment; reduction of lesion (symptomatic leaf) area (B. cinerea [5]; common bean leaves, peptide sprayed at 15 µM, 7 dpi, vs water control): about 75%; growth inhibition at maximum concentration tested (B. cinerea [6]): completely inhibited the growth; growth inhibition at maximum concentration tested (P. expansum): completely inhibited the growth; germination of conidia (microscopy, Evans blue) (B. cinerea conidia; 24 h incubation in PDB, 5 × 10^5 mL^−1 conidia): conidia did not germinate; fungal growth after rinsing and plating treated conidia on PDA (fungicidal activity) (B. cinerea conidia; treated 24 h, rinsed with distilled water, plated on PDA): No fungal growth was observed
CCCCCCCC(=O)NC(C)(C)C(=O)NCC(=O)N[C@@H](CC(C)C)C(=O)NC(C)(C)C(=O)N[C@@H](CCCCN)C(=O)N[C@@H](CCCCN)C(=O)N[C@@H](CC(C)C)C(N)=O [Peptide 4c1] (Octanoyl-[Aib]GL[Aib]KKL-NH2) |  | inhibiting mycelial growth |  | >170 | ~55% | 
CCCCCCCC(=O)NC(C)(C)C(=O)N[C@@H](CCCCN)C(=O)N[C@@H](CCCCN)C(=O)N[C@@H](CC(C)C)C(=O)NC(C)(C)C(=O)NCC(=O)N[C@H](C(=O)N[C@@H](CC(C)C)C(N)=O)[C@@H](C)CC [Peptide 4c2] (Octanoyl-[Aib]KKL[Aib]GIL-NH2) |  | inhibiting mycelial growth |  | >170 | about 70% | 
CCCCCCCC(=O)NC(C)(C)C(=O)N[C@@H](CCCCN)C(=O)N[C@@H](CCCCN)C(=O)N[C@@H](CC(C)C)C(=O)NC(C)(C)C(=O)NCC(=O)N[C@H](C(=O)N[C@H](CO)CC(C)C)[C@@H](C)CC [Peptide 4c] (Octanoyl-[Aib]KKL[Aib]GI[Leu(ol)]) |  | inhibiting mycelial growth |  | >170 | ~55% | 
CCCCCCCC(=O)NC(C)(C)C(=O)NCC(=O)N[C@@H](CC(C)C)C(=O)NC(C)(C)C(=O)NCC(=O)N[C@@H](CCCCN)C(=O)N[C@@H](CC(C)C)C(=O)NC(C)(C)C(=O)NCC(=O)N[C@H](C(=O)N[C@H](CO)CC(C)C)[C@@H](C)CC [Peptide 5] |  | No growth occurred | ++++ | >170 | > 95% | growth inhibition at maximum concentration tested (F. graminearum): completely inhibited the growth; MIC (F. graminearum): 5 to 15 µM; growth inhibition at maximum concentration tested (B. sorokiniana): strong growth inhibition effect; disease symptoms (in words) (B. cinerea [5]; common bean leaves, 15 µM): significant decrease in disease symptoms; disease symptoms (in words) (B. cinerea [5]; common bean leaves, 50 µM): almost complete annulment; growth inhibition at maximum concentration tested (B. cinerea [6]): completely inhibited the growth; growth inhibition at maximum concentration tested (P. expansum): completely inhibited the growth
CCCCCCCC(=O)NC(C)(C)C(=O)NCC(=O)N[C@@H](CC(C)C)C(=O)NC(C)(C)C(=O)N[C@@H](CCCCN)C(=O)NC(C)(C)C(=O)N[C@@H](CC(C)C)C(=O)NC(C)(C)C(=O)NCC(=O)N[C@H](C(=O)N[C@H](CO)CC(C)C)[C@@H](C)CC [Peptide 6] | 12 to 24 | delayed growth | + |  |  | 
CCCCCCCC(=O)NC(C)(C)C(=O)N[C@@H](CCCCN)C(=O)N[C@@H](CC(C)C)C(=O)NC(C)(C)C(=O)NCC(=O)N[C@@H](CCCCN)C(=O)N[C@@H](CC(C)C)C(=O)NC(C)(C)C(=O)NCC(=O)N[C@H](C(=O)N[C@H](CO)CC(C)C)[C@@H](C)CC [Peptide 7] | 72 to 84 | delayed growth | ++ |  |  | 
CCCCCCCC(=O)NC(C)(C)C(=O)NCC(=O)N[C@@H](CC(C)C)C(=O)NC(C)(C)C(=O)NCC(=O)NCC(=O)N[C@@H](CC(C)C)C(=O)NC1(C(=O)NCC(=O)N[C@H](C(=O)N[C@H](CO)CC(C)C)[C@@H](C)CC)CCNCC1 [Peptide 8, [Api^8]-trichogin] (Octanoyl-[Aib]GL[Aib]GGL[Api]GI[Leu(ol)]) |  | No growth occurred |  | >170 |  | growth inhibition at maximum concentration tested (F. graminearum): completely inhibited the growth; MIC (F. graminearum): 5 to 15 µM; growth inhibition at maximum concentration tested (B. sorokiniana): strong growth inhibition effect; growth inhibition at maximum concentration tested (B. cinerea [6]): completely inhibited the growth; growth inhibition at maximum concentration tested (P. expansum): completely inhibited the growth
nOct-Aib-Gly^2-Leu-Aib-Gly^5-Gly-Leu-Aib^8-Gly-Ile-Lol [trichogin, trichogin GA IV, short-length, natural 11-residue lipopeptaibol produced by T. longibrachiatum, reference compound] | 0 | fungal growth was observed after 12 h; also recorded: completely inactive |  |  |  | activity against F. graminearum (in words) (F. graminearum): inactive; activity against B. sorokiniana (in words) (B. sorokiniana): inactive; activity against P. expansum (in words) (P. expansum): inactive; water solubility (in words) [7]: poor water solubility
